Data taken from patent publication US9540378B2, “Composition comprising purine derivatives or salt thereof for preventing or treating atopic dermatitis” (DAEWOONG CO., LTD., priority 2012, dated 2017).
Marks after values point to notes of the source that are not given here.

Assays:
[1] = tested on: NC/Nga mice, animal models of atopic dermatitis; assay: In vivo inhibitory activity against atopic dermatitis in 2,4-DNFB-induced NC/Nga mice; details: for Reducing ratio (%) Dermatitis score: applied on affected sites twice per day for 10 days; for Reducing ratio (%) Dermatitis score / Reducing ratio (%) Difference of left and right ear thicknesses / Reducing ratio (%) Epidermis thickness / Reducing ratio (%) Number of mast cells / Reducing ratio (%) Serum IgE level: vs atopic control group; for Reducing ratio (%) Difference of left and right ear thicknesses / Reducing ratio (%) Epidermis thickness / Reducing ratio (%) Number of mast cells / Reducing ratio (%) Serum IgE level: topical, 10 days
Description: NC/Nga mice (male, 6 weeks old), animal models of atopic dermatitis, were subject to complete hair removal of the back skin, and then left for 24 hours for healing the minute wounds on the skin. Atopic dermatitis was induced to the mice as follows. That is, a 0.2% solution of 2,4-DNFB (2,4-dinitrofluorobenzene) was prepared by dissolving in a mixed solvent of acetone and olive oil (3:1, v/v). The solution (150 μl) was applied on the hair-removed site of each mouse twice per week for 4 weeks, to induce atopic dermatitis.
The normal control group (NC) was subject to only complete hair removal of the back skin. In case of the atopic dermatitis-induced atopic control group (AC), only Vaseline was applied on the hair-removed sites. […] Each group includes 8 mice.
The therapeutic activity against atopic dermatitis was evaluated through measuring dermatitis scores, epidermis thicknesses, left and right ear thicknesses, serum IgE levels, and numbers of mast cells.
The dermatitis scores were determined by observing the affected sites at the time when the treatments were completed, and then evaluating the visual changes such as erythema, bleeding, scab, etc., so as to yield the scores ranging from 1 to 10. From the resulting dermatitis scores, the inhibition ratio of each test group was calculated in comparison with the atopic control group.
Skin tissue was taken in a size of 1 cm×1 cm from the central area of each affected site, fixed with 10% formaldehyde solution, embedded in paraffin film, and then cut into a 4 μm section. Each tissue section was subject to hematoxylin-eosin (H&E) staining, and then observed with an optical microscope (×200, 5 sites per tissue) so as to calculate the epidermis thickness thereof.
The left and right ear thicknesses were measured with a digital vernier caliper, at the time when the test was started and at the time when the test was completed.
The serum IgE level was measured in the blood collected from the heart of each group mice, according to ELISA (Enzyme-linked immunosorbent assay) methods.
Skin tissue was taken in a size of 0.5 cm×1 cm from the central area of each affected site, fixed with IHC zinc fixative formalin-free solution, embedded in paraffin film, and then cut into a 4 μm section. Each tissue section was adhered on a slide coated with poly-L-lysine, followed by removing the paraffin and hydrating. Each resulting section was subject to toluidine blue staining, and then observed with an optical microscope (×200, 3 sites per tissue) so as to measure the number of mast cells.
All measurement values were calculated in mean±standard deviation. Statistical significances were determined with ANOVA. ≦5% is considered as being statistically significant.

COX-2 = assay: Inhibition of inflammatory cytokine mRNA expression (RT-PCR) in LPS-treated Raw264.7 cells: COX-2; type: cell-based, mouse; details: 400 uM, LPS 1 ug/ml, 24 hours
Description: (§1) The inhibitory activity of the compound of Formula 1 was evaluated against the expressions of inflammatory cytokines of atopic dermatitis, i.e., IL-6, IL-10, IL-12p40, and COX-2. Briefly, the Raw264.7 mouse macrophage cell line (ATCC TIB-71) (about 1×10^6 cells) was added into the each well of a 12-well plate and then incubated in a RPMI medium supplemented with 100 U/ml penicillin, 100 ug/ml streptomycin and 10% fetal bovine serum. The cells were treated with the compound of Formula 1 (400 uM) and LPS (1 ug/ml), and then incubated under the condition of 37° C., 5% CO2 for 24 hours. The cells isolated from each group of the medium were treated with a Trizol reagent to extract the total RNA. Each cDNA was prepared according to the vendor's instruction, using a First strand cDNA synthesis kit (Fermentas). The resulting cDNAs (in the same amount for each cDNA) were subject to PCR amplification. The sense and antisense primers used were prepared according to the disclosures, i.e., Zhi-Qiang Chang et al., J. Nutr. Sci. Vitaminol., 2011, 27, p 118-122, JiYeon Lee et al., Biol. Pharm. Bull., 2007, 30(11), p 2043-2051, E. V. Maryukhnich et al., Biol. Sci., 2007, 414, p 242-245. […]

IL-6 = assay: Inhibition of inflammatory cytokine mRNA expression (RT-PCR) in LPS-treated Raw264.7 cells: IL-6; type: cell-based, mouse; details: 400 uM, LPS 1 ug/ml, 24 hours
Description: as §1

IL-12p40 = assay: Inhibition of inflammatory cytokine mRNA expression (RT-PCR) in LPS-treated Raw264.7 cells: IL-12p40; type: cell-based, mouse; details: 400 uM, LPS 1 ug/ml, 24 hours
Description: as §1

IL-10 = assay: Inhibition of inflammatory cytokine mRNA expression (RT-PCR) in LPS-treated Raw264.7 cells: IL-10; type: cell-based, mouse; details: 400 uM, LPS 1 ug/ml, 24 hours
Description: as §1

[2] = 0.03% and 0.1%, applied on affected sites for 10 days

## Cn1c(N)nc2c(ncn2C)c1=O [compound of Formula 1, 2-amino-1,9-dimethylpurin-6-one]
[1]; [2]
  dermatitis scores, in words: significantly reduced
  differences of left and right ear thicknesses, in words: significantly reduced
  epidermis thicknesses, in words: significantly reduced
  numbers of mast cells, in words: significantly reduced
  serum IgE levels, in words: significantly reduced
[1]; Test group 1 (0.03%)
  Reducing ratio (%) Dermatitis score: 8.96* %
  Reducing ratio (%) Difference of left and right ear thicknesses: 7.69%
  Reducing ratio (%) Epidermis thickness: 36.13*** %
  Reducing ratio (%) Number of mast cells: 7.7%
  Reducing ratio (%) Serum IgE level: 51.76%
[1]; Test group 2 (0.1%)
  Reducing ratio (%) Dermatitis score: 24.00*** %
  Reducing ratio (%) Difference of left and right ear thicknesses: 38.46%
  Reducing ratio (%) Epidermis thickness: 52.63*** %
  Reducing ratio (%) Number of mast cells: 24.9** %
  Reducing ratio (%) Serum IgE level: 56.46** %
COX-2
  COX-2 mRNA expression level: effectively inhibited
IL-6
  IL-6 mRNA expression level: effectively inhibited
IL-12p40
  IL-12p40 mRNA expression level: effectively inhibited
IL-10
  IL-10 mRNA expression level: effectively inhibited
